*1 amine or outer side, *2 acyl side, *3 side chain or, on linkers, in order; H or OH if unused. Where a SMILES comes first, the peptide text is derived from it. [ ]: non-standard residue; d: D form. Phe(4-(4-Ac-piperazinyl)) = CC(=O)N1CCN(c2ccc(C[C@H](N)C(=O)O)cc2)CC1; Trp(4-Cl)(βS-Me) = C[C@@H](c1c[nH]c2cccc(Cl)c12)[C@H](N)C(=O)O; Trp(βS-Me,4-F) = C[C@@H](c1c[nH]c2cccc(F)c12)[C@H](N)C(=O)O; Bip(4'-COOH) = N[C@@H](Cc1ccc(-c2ccc(C(=O)O)cc2)cc1)C(=O)O; X1 = CC(=O)N1CCN(c2ccc(C[C@H](N[*:1])C(=O)[*:2])cn2)CC1; 1Nal(3S-Me) = C[C@@H](c1cccc2ccccc12)[C@H](N)C(=O)O; Ala(indolin-1-yl) = N[C@@H](CN1CCc2ccccc21)C(=O)O; Phe(4-COOH) = N[C@@H](Cc1ccc(C(=O)O)cc1)C(=O)O; Trp(6-F) = N[C@@H](Cc1c[nH]c2cc(F)ccc12)C(=O)O; h3Pal(5-CN) = N#Cc1cncc(CC[C@H](N)C(=O)O)c1; Pro(4R-NH2) = N[C@H]1CN[C@H](C(=O)O)C1; AEF = NCCOc1ccc(C[C@H](N)C(=O)O)cc1; hTyr = N[C@@H](CCc1ccc(O)cc1)C(=O)O; hCha = N[C@@H](CCC1CCCCC1)C(=O)O; hPhe = N[C@@H](CCc1ccccc1)C(=O)O; tBuAla = CC(C)(C)C[C@H](N)C(=O)O; Aad = N[C@@H](CCCC(=O)O)C(=O)O; dDab = NCC[C@@H](N)C(=O)O; hSer = N[C@@H](CCO)C(=O)O; dNMeA = CN[C@H](C)C(=O)O; Dab = NCC[C@H](N)C(=O)O
Molecular target: T1, Recombinant human IL-1β (Homo sapiens, UniProt P01584)
T1 construct: purchased BioLegend 579404
Assay: IL-6 assay in MRC5 cells: inhibition of IL-1β induced IL-6 secretion (AlphaLISA)
Format: cell-based
Settings: inhibition of IL-1β induced IL-6 secretion in MRC5 cells; read-out: MRC5 IC50
How it was run: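 IL-1β at 2×EC80 in seeding medium (EMEM, 0.025% BSA) preincubated 1 h at ambient temperature with compound, then 3000 MRC5 cells/well added and incubated overnight at 37 °C, 5% CO2. IL-6 in conditioned medium quantified by AlphaLISA; IC50 from 4-parameter logistic fit.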

T1 sequence (P01584 117-269): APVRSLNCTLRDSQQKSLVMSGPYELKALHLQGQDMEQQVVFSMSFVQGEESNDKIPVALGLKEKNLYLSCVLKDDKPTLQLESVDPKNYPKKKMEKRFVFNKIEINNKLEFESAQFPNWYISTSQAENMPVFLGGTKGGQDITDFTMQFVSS

Structure (SMILES)	IC50
COCC[C@@H]1NC(=O)[C@H](Cc2c[nH]c3ccccc23)NC(=O)[C@H](Cc2ccc(-c3ccc(C(=O)O)cc3)cc2)NC(=O)CNC(=O)[C@@H](C)N(C)C(=O)[C@H](CC(=O)O)NC(=O)[C@H]([C@@H](C)c2c[nH]c3cccc(Cl)c23)NC(=O)[C@@H]2C[C@@H](N)CN2C(=O)CNC(=O)[C@H](Cc2ccc(C(=O)O)cc2)NC(=O)[C@H](Cc2c[nH]c3ccccc23)NC(=O)[C@H](Cc2ccc(OCCNC(C)=O)cc2)NC(=O)[C@H](CCc2ccc(O)cc2)NC(=O)[C@@H](C)NC1=O [Example 147] (cyclo([AEF](Ac)W[Phe(4-COOH)]G[Pro(4R-NH2)][Trp(4-Cl)(βS-Me)]D[dNMeA]G[Bip(4'-COOH)]W[hSer](Me)[dA][hTyr]))	0.0926 nM
CC(=O)NCCOc1ccc(C[C@@H]2NC(=O)[C@H](CCc3ccccc3)NC(=O)[C@@H](C)NC(=O)[C@H](CCN)NC(=O)[C@H](Cc3c[nH]c4ccccc34)NC(=O)[C@H](Cc3ccc(-c4ccc(C(=O)O)cc4)cc3)NC(=O)CNC(=O)[C@@H](C)N(C)C(=O)[C@H](CC(=O)O)NC(=O)[C@H]([C@@H](C)c3c[nH]c4cccc(F)c34)NC(=O)[C@@H]3C[C@@H](N)CN3C(=O)CNC(=O)[C@H](Cc3ccc(C(=O)O)cc3)NC(=O)[C@H](Cc3c[nH]c4ccccc34)NC2=O)cc1 [Example 163] (cyclo([AEF](Ac)W[Phe(4-COOH)]G[Pro(4R-NH2)][Trp(βS-Me,4-F)]D[dNMeA]G[Bip(4'-COOH)]W[Dab][dA][hPhe]))	0.156 nM
CC(=O)NCCOc1ccc(C[C@@H]2NC(=O)[C@H](CCc3ccc(O)cc3)NC(=O)[C@@H](CCN)NC(=O)CNC(=O)[C@H](Cc3c[nH]c4ccccc34)NC(=O)[C@H](Cc3ccc(-c4ccc(C(=O)O)cc4)cc3)NC(=O)CNC(=O)[C@@H](C)N(C)C(=O)[C@H](CC(=O)O)NC(=O)[C@H]([C@@H](C)c3cccc4ccccc34)NC(=O)[C@@H]3C[C@@H](N)CN3C(=O)CNC(=O)[C@H](Cc3ccc(C(=O)O)cc3)NC(=O)[C@H](Cc3c[nH]c4ccccc34)NC2=O)cc1 [Example 123] (cyclo([AEF](Ac)W[Phe(4-COOH)]G[Pro(4R-NH2)][1Nal(3S-Me)]D[dNMeA]G[Bip(4'-COOH)]WG[dDab][hTyr]))	0.0457 nM

Now from value to molecule:

IC50	Structure (SMILES)
0.027 nM	CC(=O)NCCOc1ccc(C[C@@H]2NC(=O)[C@H](CCc3ccc(O)cc3)NC(=O)[C@@H](CCN)NC(=O)CNC(=O)[C@H](CN3CCc4ccccc43)NC(=O)[C@H](Cc3ccc(-c4ccc(C(=O)O)cc4)cc3)NC(=O)CNC(=O)[C@@H](C)N(C)C(=O)[C@H](CC(=O)O)NC(=O)[C@H]([C@@H](C)c3cccc4ccccc34)NC(=O)[C@@H]3C[C@@H](N)CN3C(=O)CNC(=O)[C@H](Cc3ccc(C(=O)O)cc3)NC(=O)[C@H](Cc3c[nH]c4cc(F)ccc34)NC2=O)cc1 [Example 211] (cyclo([AEF](Ac)[Trp(6-F)][Phe(4-COOH)]G[Pro(4R-NH2)][1Nal(3S-Me)]D[dNMeA]G[Bip(4'-COOH)][Ala(indolin-1-yl)]G[dDab][hTyr]))
0.017 nM	CC(=O)N1CCN(c2ccc(C[C@@H]3NC(=O)[C@H](CCc4cncc(C#N)c4)NC(=O)[C@@H](C)NC(=O)[C@H](CC(C)C)NC(=O)[C@H](CCCC(N)=O)NC(=O)[C@H](Cc4ccc(-c5ccc(C(=O)O)cc5)cc4)NC(=O)CNC(=O)[C@@H](C)N(C)C(=O)[C@H](CC(=O)O)NC(=O)[C@H]([C@@H](C)c4cccc5ccccc45)NC(=O)[C@@H]4C[C@@H](N)CN4C(=O)CNC(=O)[C@H](Cc4ccc(C(=O)O)cc4)NC(=O)[C@H](Cc4c[nH]c5ccccc45)NC3=O)cn2)CC1 [Example 176] (cyclo([X1]W[Phe(4-COOH)]G[Pro(4R-NH2)][1Nal(3S-Me)]D[dNMeA]G[Bip(4'-COOH)][Aad](NH2)L[dA][h3Pal(5-CN)]))
0.015 nM	CC(=O)N1CCN(c2ccc(C[C@@H]3NC(=O)[C@H](CCc4cncc(C#N)c4)NC(=O)[C@@H](C)NC(=O)[C@H](CC(C)(C)C)NC(=O)[C@H](CCCCN)NC(=O)[C@H](Cc4ccc(-c5ccc(C(=O)O)cc5)cc4)NC(=O)CNC(=O)[C@@H](C)N(C)C(=O)[C@H](CC(=O)O)NC(=O)[C@H]([C@@H](C)c4cccc5ccccc45)NC(=O)[C@@H]4C[C@@H](N)CN4C(=O)CNC(=O)[C@H](Cc4ccc(C(=O)O)cc4)NC(=O)[C@H](Cc4c[nH]c5ccccc45)NC3=O)cn2)CC1 [Example 181] (cyclo([X1]W[Phe(4-COOH)]G[Pro(4R-NH2)][1Nal(3S-Me)]D[dNMeA]G[Bip(4'-COOH)]K[tBuAla][dA][h3Pal(5-CN)]))
0.011 nM	CC(=O)N1CCN(c2ccc(C[C@@H]3NC(=O)[C@H](CCC4CCCCC4)NC(=O)[C@@H](C)NC(=O)[C@H](CC(C)C)NC(=O)[C@H](CCCCN)NC(=O)[C@H](Cc4ccc(-c5ccc(C(=O)O)cc5)cc4)NC(=O)CNC(=O)[C@@H](C)N(C)C(=O)[C@H](CC(=O)O)NC(=O)[C@H]([C@@H](C)c4cccc5ccccc45)NC(=O)[C@@H]4C[C@@H](N)CN4C(=O)CNC(=O)[C@H](Cc4ccc(C(=O)O)cc4)NC(=O)[C@H](Cc4c[nH]c5ccccc45)NC3=O)cc2)CC1 [Example 207] (cyclo([Phe(4-(4-Ac-piperazinyl))]W[Phe(4-COOH)]G[Pro(4R-NH2)][1Nal(3S-Me)]D[dNMeA]G[Bip(4'-COOH)]KL[dA][hCha]))
